# Article PMC4985813, “Binding site elucidation and structure guided design of macrocyclic IL-17A antagonists” (Scientific Reports, 2016)
# Where “and” joins values, the source holds several entries; their conditions need not be identical. Identical values can stand only once. Entries after “also recorded” stand apart in the source; their conditions may differ. Like-named read-outs stand apart in the source and are kept apart here.
# Legend:
# [1] = biological target: T1, IL-17RA (Homo sapiens, UniProt Q96F46); test: SPR selectivity binding, immobilized IL-17RA ECD
# T1 construct: Biotinylated BAP-tagged IL-17RA ECD[17]
# Description: (§1) The IL-17 SPR binding assay was run on a Biacore 3000 SPR instrument (GE Healthcare). Biotinylated Bap-tagged human IL-17A[23], was captured on a Biacore Streptavidin chip to achieve a protein density of 2500–3500 RUs on the surface. The SPR running buffer was 10 mM HEPES, pH 7.4, 150 mM NaCl, 0.01% P20 with 3% DMSO. Compound samples were injected at a flow rate of 50 μL/min for 180 s association and followed by running buffer for at least 600 s to detect dissociation. Compound concentrations were varied across a 2–3 fold dilution series. Each concentration was tested at least in duplicate. When compounds were tested in the presence of HAP, the running buffer contained 50 nM of HAP and all samples were prepared in the running buffer. Multiple blank injections were run before and after each compound series for references. The data were processed and analyzed with Scrubber 2.0 (BioLogical Software) and Biaeval software (GE Healthcare) to calculate the binding constants along with on- and off-rates.
# (§2) Biotinylated BAP-tagged IL-17RA ECD[17] and chemically biotinylated IL-17F (R&D Systems, Minneapolis, MN) were separately immobilized on Biacore Streptavidin chips to permit selectivity testing of compounds. The binding experiments were carried out as described above.
# [2] = test system: IL-17A-stimulated human keratinocytes; test: Primary human keratinocytes cell assay, IL-8 production stimulated by IL-17A and TNF-α; format: cell-based; conditions: for IC50: Homo sapiens, Keratinocyte
# Description: (§3) Primary human keratinocytes were cultured in Epilife medium with EDGS (Life Technology, Cascade Biologics) following product instructions. 5 days after establishing the culture from frozen vials, cells were plated at 10,000/well (80 μL) in culture media in 384-well plates. 4 h after plating, 10 μL of 10× compound stocks were added. Final DMSO concentration was 1%. Immediately after compound addition, 10 μL of a mixture of recombinant human IL-17A (R&D System, Minneapolis, MN) (5 ng/mL final) and TNF-α (Sigma-Aldrich, St Louis, MO) (10 ng/mL final), or TNF-α alone (10 ng/mL) were added to the cells. Cell assay plates were incubated for 48 h at 37 °C in a tissue culture incubator. Culture supernatants were harvested for analysis of IL-8 production using kit K211ANB-2 (Meso Scale Discovery, Rockville, MD).
# [3] = biological target: T2, IL-17F homodimer (Homo sapiens, UniProt Q96PD4); test: SPR selectivity binding, immobilized IL-17F; conditions: for binding to IL-17F (SPR): concentrations up to 13.3 μM
# T2 construct: purchased R&D Systems, Minneapolis, MN
# T2 sequence (Q96PD4 31-163): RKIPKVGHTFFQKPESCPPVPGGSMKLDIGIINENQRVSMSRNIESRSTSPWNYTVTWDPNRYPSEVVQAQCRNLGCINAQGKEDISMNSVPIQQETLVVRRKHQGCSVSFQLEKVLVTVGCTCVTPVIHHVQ
# Description: as §1, §2
# [4] = biological target: human IL-17A (Homo sapiens, UniProt Q16552); test: SPR binding assay, immobilized IL-17A
# Description: as §1, with “When compounds were tested in the presence of HAP, the running buffer contained 50 nM of HAP and all samples were prepared in the running buffer.” left out
# [5] = test system: keratinocytes stimulated by TNF-α alone; test: Primary human keratinocytes cell assay, baseline IL-8 production stimulated by TNF-α alone; format: cell-based; conditions: Keratinocyte, TNF-α 10 ng/mL alone
# Description: as §3
# [6] = biological target: T3, IL-17A/IL-17RA interaction (Homo sapiens, UniProt Q16552); test: FRET assay of IL-17A/IL-17RA interaction; format: biochemical
# T3 construct: purchased R&D Systems (IL-17RA-Fc only)
# Description: Maximal FRET was observed when IL-17A was bound to IL-17RA and diminished FRET was observed when IL-17A was separated from IL-17RA. […] Compounds were tested using a half-log dilution series of 11 concentrations. The IL-17A was incubated with the Europium-Streptavidin to 1.5X final assay concentration for 1 h at room temperature. Compounds were prepared at 50X final concentration in 100% DMSO and 300 nL were added to a 384-well white assay plate (Greiner). 10 μL of the Europium labeled IL-17A was added to the compounds and incubated at room temperature for 1 h. […] The plates were covered and incubated at room temperature for 3 h. The FRET signal of the IL-17A/IL-17RA interaction was measured using an EnVision Multilabel plate reader (PerkinElmer). […] A four-parameter logistic nonlinear regression model using the percent inhibition at each concentration was used to calculate an IC50 for each compound.
# [7] = biological target: T4, full-length recombinant IL-17A (Homo sapiens, UniProt Q16552); test: Covalent labeling of IL-17A with sulfonyl fluoride probe (pull-down, protein mass analysis, peptide mapping); format: biochemical
# T4 construct: made in house
# Description: Human recombinant IL-17A expressed in E. coli (5 μM) was incubated with and without compound 4 (50 μM) for 20 h at 37 °C in Dulbecco’s phosphate-buffered saline solution. To analyze cytokine homodimer, 10 μL of each sample was subjected to LC-MS using an Acquity class H UPLC (Waters) interfaced to a Xevo G2–S Q-Tof mass spectrometer (Waters). Chromatography was performed on a 2.1 × 100 mm Acquity BEH 300 Å C4 column (1.7 μm silica) (Waters) at 40 °C using the following gradient: 5% B/1 min, 5–85% B/10 min at 0.4 mL/min. Solvents: A, 0.05% formic acid in water; B, 0.05% formic acid in acetonitrile. […]
# 100 μL of each reaction sample was treated with three volumes of acetone at −20 °C for 2 h, after which the mixture was centrifuged at 14,000 × g for 10 min. […] Each digest was next treated with 4.5 mM DTT for 15 min at 37 °C, and 8 μL of each digest was analyzed on an Agilent Model 1100 HPLC system interfaced with a LTQ Orbitrap XL mass spectrometer (Thermo). […]
# 0.5 μM full length IL-17A (R&D Systems) was pre-incubated with DMSO or 50 μM a control compound in PBS at room temperature for 30 min, after which 5 μM sulfonyl fluoride probe compound 4 was added to the protein mixture (final sample volume 50 μl) and incubated for 1 h. […] Eluates were separated on a 12% NuPAGE Bis-Tris gel, transferred to a PVDF membrane, and then analyzed by immunoblot (anti-IL17A antibody from R&D Systems).
# T3 sequence (Q16552 24-155): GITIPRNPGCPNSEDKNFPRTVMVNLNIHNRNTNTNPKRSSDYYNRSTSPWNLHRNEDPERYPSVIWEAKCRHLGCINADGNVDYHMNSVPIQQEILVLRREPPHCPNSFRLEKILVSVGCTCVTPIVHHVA
# T1 sequence (Q96F46 33-320 limits assumed): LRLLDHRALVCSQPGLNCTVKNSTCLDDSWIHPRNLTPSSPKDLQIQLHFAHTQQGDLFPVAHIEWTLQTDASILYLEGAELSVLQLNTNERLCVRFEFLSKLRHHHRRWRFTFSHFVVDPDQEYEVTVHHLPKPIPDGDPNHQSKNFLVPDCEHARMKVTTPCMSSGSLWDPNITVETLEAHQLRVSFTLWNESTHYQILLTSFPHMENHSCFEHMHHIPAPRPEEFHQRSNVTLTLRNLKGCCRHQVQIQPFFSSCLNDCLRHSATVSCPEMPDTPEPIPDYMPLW
# Chain of human IL-17A (Q16552 24-155): as the sequence (Q16552 24-155) above
# T4 sequence (Q16552 24-155): as above
smiles,measurement,setting,value
CN(C)C(=O)CC1(CC(=O)NCCc2ccc(NC(=O)[C@H](Cc3ccccc3F)NC(=O)c3ccnn3C)cc2)CCCC1 [Compound 1],binding to IL-17RA (SPR),[1]; concentrations up to 40 μM,no measurable binding; also recorded: did not show measurable binding
same,modulation of IL-8 production in IL-17A-stimulated human keratinocytes,[2]; in the presence of TNF-α,insufficient to modulate
same,binding to IL-17F homodimer (SPR),[3]; concentrations up to 40 μM,no measurable binding; also recorded: did not show any measurable binding
CNC(=O)[C@H]1Cc2ccc(cc2)NC(=O)[C@@H](NC(=O)c2ccnn2C)Cc2cc(ccc2Cl)Oc2ccc(cc2)C2(CCCC2)CC(=O)N1 [Compound 2],binding to IL-17RA (SPR),[1]; concentrations up to 13.3 μM,did not show measurable binding
same,Kd,[4]; read-out: IL-17A SPR KD,199 nM
same,Kd,[4]; read-out: SPR KD,< 200 nM
same,IC50,[5],> 30000 nM
same,IC50,[6],< 35 nM and 34 nM
same,IC50,"[2]; IL-17A 5 ng/mL and TNF-α 10 ng/mL, 48 h, read-out: Keratinocyte IC50 (IL-8)",537 nM
same,IC50,"[2]; read-out: IC50, IL-17A-stimulated production of IL-8 in keratinocytes",< 540 nM
same,binding to IL-17F (SPR),[3],did not show measurable binding
CNC(=O)[C@H]1Cc2ccc(cc2)NC(=O)C(NC(=O)c2ccnn2C)Cc2cc(ccc2Cl)-c2cccc(c2)CCC(=O)N1 (some centres unmarked) [Compound 3],binding to IL-17RA (SPR),[1]; concentrations up to 13.3 μM,no measurable binding; also recorded: did not show measurable binding
same,IC50,[5],> 30000 nM
same,binding to IL-17F (SPR),[3],no measurable binding; also recorded: did not show measurable binding
C#CCNC(=O)[C@@H](Cc1ccc(NC(=O)[C@H](Cc2ccccc2F)NC(=O)c2ccnn2C)cc1)NC(=O)CC1(CC(=O)Nc2cccc(S(=O)(=O)F)c2)CCCC1 [Compound 4],IC50,[6],200 nM
same,covalent labeling of IL-17A,[7]; in the absence of HAP,covalently labeled
same,principal site of modification of IL-17A,[7]; peptide mapping,Tyr85
